According to ChEMBL document CHEMBL3580594, “Synthesis and biological evaluation of 4-substituted fluoronucleoside analogs for the treatment of hepatitis B virus infection” (J Med Chem, 2015):

Columns and labels:
[1] = test system: Mus musculus; experiment: Acute toxicity in KM mouse assessed as adverse effect at 200 mg/kg, iv suspended in normal saline; type: organism-based; details: in vivo
[2] = test system: Duck hepatitis B virus; experiment: Antiviral activity against duck Hepatitis B virus infected in duck assessed as inhibition of viral DNA replication in liver at 0.2 mg/kg/day, po measured after 3 days of treatment withdrawal; type: functional; details: 72 h
[3] = test system: Mus musculus; experiment: Toxicity in KM mouse assessed as peripheral WBC number in blood per liter at 10 mg/kg/day, po 5 doses (reference value: 7.47 +/- 33.77 /L x 10^-9 cells); type: organism-based; details: in vivo

[N-]=[N+]=N[C@]1(CO)O[C@@H](n2ccc(NC3CC3)nc2=O)[C@@H](F)[C@@H]1O
Activity [1]: Non-toxic
inhibition in vivo at 0.2 mg/kg/day [2]: 63.1%
Activity [3]: 8.09 ×10⁹ /L
